# Results reported in patent US20250197457A1, “CHIMERIC IGG-FC-BINDING LIGAND POLYPEPTIDE AND USES THEREOF FOR IGG AFFINITY PURIFICATION” (Roche Diagnostics Operations, Inc., priority 2021, published 2025).
# B1: TtSlyD-Fc-III-2C Hit No. 4: SlyD chimera whose IF domain is replaced by Fc-III-XC peptide EDCAWHLGELVWCTE, SEQ ID NO: 16 (protein)
# chain: MKVGQDKVVTIRYTLQVEGEVLDQGELSYLHGHRLIPGLEEALEGREEGEAFQAHVPAEKAYEDCAWHLGELVWCTEGKDLDFQVEVVKVREATPEELLHGHA
# modifications: left off: small tags and cut ends
# Columns and labels:
# IgG-Fc-region = conditions: DeLano et al. 2000; cited from earlier work
# rabbit IgG = target: T1, rabbit IgG (Oryctolagus cuniculus, UniProt P01870); conditions: Gong et al.; cited from earlier work
# T1 construct: purchased Sigma-Aldrich
# T1 sequence (P01870 whole entry): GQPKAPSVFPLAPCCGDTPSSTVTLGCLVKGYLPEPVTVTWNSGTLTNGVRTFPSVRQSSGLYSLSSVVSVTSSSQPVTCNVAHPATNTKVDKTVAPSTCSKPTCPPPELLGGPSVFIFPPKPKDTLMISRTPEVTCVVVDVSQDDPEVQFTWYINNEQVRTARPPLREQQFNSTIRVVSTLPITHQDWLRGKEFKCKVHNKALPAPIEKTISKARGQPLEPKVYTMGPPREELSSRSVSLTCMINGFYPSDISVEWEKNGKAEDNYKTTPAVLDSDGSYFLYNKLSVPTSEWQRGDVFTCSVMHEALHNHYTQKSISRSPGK
# human IgG [1] = conditions: cited from earlier work
# human IgG [2] = assay: SPR interaction assay (Biacore), scaffolds immobilised, human IgG as analyte; assay type: binding; conditions: hIgG at 25° C.
# Description: Surface plasmon resonance (SPR) The affinities and binding kinetics of the generated TtSlyD-Fc-III-4C mutants were evaluated by SPR using a Biacore biosensensor system. The Biacore system enables a real-time monitoring of intermolecular interactions between the ligand, immobilised on a sensor chip gold-surface, and the analyte which is free in solution and passes over the ligand (Healthcare, G., Biacore™ Assay Handbook 29-0194-00 Edition AA). Interaction of the binding partners leads to SPR signals (responses), measured in resonance units (RU) and illustrated as plot against time (sensorgram).
# Regarding the procedure, in brief, the analyte is injected on the chip, interacting with the immobilised ligand. The change in concentration of molecules at the chip surface leads to a change in the refractive index, monitored as response unit (RU). Dissociation of analyte is triggered by continues buffer flow, followed by complete removal (chip regeneration) and starting of a new analysis cycle. […]
# Interaction kinetics are examined by monitoring different analyte concentrations over time. Kinetic parameters, such as association (ka) and dissociation rate constants (kd) are evaluated in relation to a mathematical model. […]
molecule,measurement,setting,value
DCAWHLGELVWCT [Fc-III],binding affinity relative to Protein A,IgG-Fc-region,only about two fold weaker
CDCAWHLGELVWCTC [Fc-III-4C],Kd,rabbit IgG,5.67 nM
same,higher binding affinity to human IgG compared to the original Fc-III,human IgG [1]; SPR,30 fold
same,Kd,"human IgG [1]; human IgG, Gong et al. 2016",2.45 nM
B1,binding affinity KA,human IgG [2],1.09e+08 M⁻¹
same,t/2 diss,human IgG [2],36 min
